Assay results taken from patent publication US20260198495A1, “BINARY INSECTICIDE COMPOSITION AND USE THEREOF” (SHENYANG SINOCHEM AGROCHEMICALS R & D CO., LTD., priority 2022, published 2026).

System: Spodoptera exigua Hübner
Experiment: Field efficacy trial of I-72 and Spodoptera exigua Hübner nucleopolyhedrovirus, Example 87, Table 87
Type: in vivo
Details: spraying
Protocol: This trial was arranged in the field trial shed area of the Wuhan Vegetable Research Institute. The spraying method was adopted for pesticide application. The investigation method was to take samples at 5 points, with 2 fixed plants at each point. A total of 10 plants were investigated in each plot, and the trial was repeated four times. The population base of pests was investigated before the pesticide application, and investigations were performed 3 days and 7 days after the pesticide application. The amount of water used per mu was 30L. The calculation method for the efficacy of the test pesticides is as follows:
Test pesticides: A: Spodoptera exigua Hübner nucleopolyhedrovirus suspension with 3 billion PIBs (produced by Henan Jiyuan Baiyun Industrial Co., Ltd.); and B: compound I-72 (dissolved in acetone, 0.1% Tween 80 was added, and a 10% stock solution was prepared for use).

SMILES: CN(C(=O)c1ccc2c(c1)OC(F)(F)O2)c1cccc(C(=O)Nc2c(Br)cc(C(F)(C(F)(F)F)C(F)(F)F)cc2OC(F)F)c1F [Compound I-72]
- Control efficacy 3 days after pesticide application (dose 6 ml per mu): 59.8%
- Control efficacy 7 days after pesticide application (dose 6 ml per mu): 71.5%
- Control efficacy 3 days after pesticide application (dose 9 ml per mu): 66.5%
- Control efficacy 7 days after pesticide application (dose 9 ml per mu): 75.2%
- Control efficacy 3 days after pesticide application (dose 12 ml per mu): 72.8%
- Control efficacy 7 days after pesticide application (dose 12 ml per mu): 82.4%
